From US8426437B2, “Pyrroloquinoline derivatives and their use as protein kinases inhibitors” (Pierre Fabre Medicament, priority 2005, dated 2013)
Structures can show the parent of a compound that is named as a salt.

Experiments:
PIM-1 = target: T1, PIM-1 (Homo sapiens, UniProt P11309); assay: Inhibition of kinase PIM-1 (Kinase-Glo); type: biochemical; conditions: PIM-1 0.625 μg/ml, 10 μM ATP, forty minutes at 30° C.
T1 construct: purchased Upstate 14-573
Method: Protein PIM-1 (Upstate #14-573 batch 25864U) is incubated at a concentration of 0.625 μg/ml in a buffer containing 8 mM of MOPS/NaOH pH7, 0.2 mM EDTA, 5 mM MgAc (Sigma #229768), 0.01% Triton Tx100, in the presence of 70 μM of peptide substrate S6 Kinase/Rsk2 (Upstate #12-243), and 10 μM of ATP.
The dilution buffer for PIM-1 is as follows: 20 mM MOPS/NaOH pH7, 1 mM EDTA, 5% glycerol, 0.01% Brij35, 0.1% 2-mercapto, 1 mg/ml BSA
The compound to be tested is first added to the enzyme to give a reaction volume of 50 μl. The dilution of the compounds of the invention is distributed so as to obtain a scale of final concentrations between 10 nM and 30 μM.
After incubation of the reaction mixture for forty minutes at 30° C., the level of ATP that remains is assayed using the Kinase-Glo Luminescent Kinase Assay (Promega #V6712) according to the conditions recommended by the supplier. The luminescence induced is read in a plate reader (Envision-Perkin Elmer).

RET = target: T2, RET (Homo sapiens, UniProt P07949); assay: Inhibition of RET kinase activity, recombinant RET method (Kinase-Glo); type: biochemical; conditions: RET 2 μg/ml, poly-EY4 substrate, 20 μM ATP, two hours at 30° C.
T2 construct: purchased Upstate 14-570MG
How it was run: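 Recombinant RET at 2 μg/ml in 20 mM MOPS/NaOH pH 7.0, 1 mM EDTA, 5% glycerol, 0.01% Brij35, 0.1% 2-mercaptoethanol, 1 mg/ml BSA; compounds 10 nM–30 μM final.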

T2 sequence (P07949 29-1114): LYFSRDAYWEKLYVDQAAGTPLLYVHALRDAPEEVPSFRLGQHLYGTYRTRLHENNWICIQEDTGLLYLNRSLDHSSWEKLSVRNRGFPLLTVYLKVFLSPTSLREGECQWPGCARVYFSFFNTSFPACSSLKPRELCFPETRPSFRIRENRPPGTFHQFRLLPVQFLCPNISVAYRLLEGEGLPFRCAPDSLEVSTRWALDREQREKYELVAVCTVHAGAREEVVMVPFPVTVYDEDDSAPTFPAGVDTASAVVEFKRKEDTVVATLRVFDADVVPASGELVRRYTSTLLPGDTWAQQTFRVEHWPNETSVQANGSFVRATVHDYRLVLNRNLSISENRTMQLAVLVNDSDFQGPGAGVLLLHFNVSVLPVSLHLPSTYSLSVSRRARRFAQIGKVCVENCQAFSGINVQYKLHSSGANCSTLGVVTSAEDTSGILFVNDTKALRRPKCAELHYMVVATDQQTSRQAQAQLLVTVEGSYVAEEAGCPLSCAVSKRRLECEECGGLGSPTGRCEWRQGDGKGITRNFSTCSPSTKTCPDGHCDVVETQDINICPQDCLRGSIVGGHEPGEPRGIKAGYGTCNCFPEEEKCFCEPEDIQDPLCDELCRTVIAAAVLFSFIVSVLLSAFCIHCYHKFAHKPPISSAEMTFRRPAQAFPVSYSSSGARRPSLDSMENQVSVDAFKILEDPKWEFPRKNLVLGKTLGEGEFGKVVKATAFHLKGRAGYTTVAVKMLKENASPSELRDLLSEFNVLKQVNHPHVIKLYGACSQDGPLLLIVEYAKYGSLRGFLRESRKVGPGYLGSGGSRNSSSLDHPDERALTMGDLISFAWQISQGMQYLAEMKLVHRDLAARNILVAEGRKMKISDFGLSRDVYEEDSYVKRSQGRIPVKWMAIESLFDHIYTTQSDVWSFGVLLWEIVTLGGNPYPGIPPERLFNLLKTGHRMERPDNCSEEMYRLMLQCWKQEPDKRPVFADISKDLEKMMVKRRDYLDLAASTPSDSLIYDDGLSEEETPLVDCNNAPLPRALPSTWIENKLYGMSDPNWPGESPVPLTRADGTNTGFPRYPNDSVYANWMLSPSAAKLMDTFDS
T1 sequence (P11309 whole entry): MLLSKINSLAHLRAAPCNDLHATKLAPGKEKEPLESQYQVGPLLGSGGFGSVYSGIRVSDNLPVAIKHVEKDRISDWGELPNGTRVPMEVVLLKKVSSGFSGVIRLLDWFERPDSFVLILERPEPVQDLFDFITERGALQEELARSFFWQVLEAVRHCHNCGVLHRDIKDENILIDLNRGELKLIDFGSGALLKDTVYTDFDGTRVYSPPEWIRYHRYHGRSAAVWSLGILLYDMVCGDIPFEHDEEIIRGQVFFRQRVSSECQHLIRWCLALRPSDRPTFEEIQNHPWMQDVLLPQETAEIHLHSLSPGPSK

Structure (SMILES) | IC50 (PIM-1) | IC50 (RET)
CCOC(=O)c1c[nH]c2c(=O)[nH]c3ccc(-c4ccnc(N(C)C)n4)cc3c12 [Compound 262, 8-(2-Dimethylamino-pyrimidin-4-yl)-4-oxo-4,5-dihydro-3H-pyrrolo[2,3-c]quinoline-1-ethyl carboxylate] | 1 to 10 µM | 1 to 10 µM
CCOC(=O)c1c[nH]c2c(=O)[nH]c3ccc(-c4ccc(N)cc4)cc3c12 [Compound 244, 8-(4-Aminophenyl)-4-oxo-4,5-dihydro-3H-pyrrolo[2,3-c]quinoline-1-ethyl carboxylate] | 0.1 to 1 µM | 0.1 to 1 µM
CCOC(=O)c1c[nH]c2c(=O)[nH]c3ccc(-c4cccc(CNC)c4)cc3c12 [Compound 241, 8-(3-Methylaminomethyl-phenyl)-4-oxo-4,5-dihydro-3H-pyrrolo[2,3-c]quinoline-1-ethyl carboxylate] | 1 to 10 µM | 0.1 to 1 µM
CCOC(=O)c1c[nH]c2c(=O)[nH]c3ccc(SCc4ccccc4)cc3c12 [Compound 222, 8-Benzylsulfanyl-4-oxo-4,5-dihydro-3H-pyrrolo[2,3-c]quinoline-1-ethyl carboxylate] | 1 to 10 µM | 0.1 to 1 µM
CCOC(=O)c1c[nH]c2c(=O)[nH]c3ccc(/C=C/c4ccccc4)cc3c12 [Compound 70, 4-Oxo-8-styryl-4,5-dihydro-3H-pyrrolo[2,3-c]quinoline-1-ethyl carboxylate] | 1 to 10 µM | 1 to 10 µM
CCOC(=O)c1c[nH]c2c(=O)[nH]c3ccc(-c4ccnc(N5CCN(C(C)=O)CC5)n4)cc3c12 [Compound 268, 8-[2-(4-Acetyl-piperazin-1-yl)-pyrimidin-4-yl]-4-oxo-4,5-dihydro-3H-pyrrolo[2,3-c]quinoline-1-ethyl carboxylate] | 1 to 10 µM | 1 to 10 µM
CCOC(=O)c1c[nH]c2c(=O)[nH]c3ccc(-c4ccnc(N)n4)cc3c12 [Compound 261, 8-(2-Amino-pyrimidin-4-yl)-4-oxo-4,5-dihydro-3H-pyrrolo[2,3-c]quinoline-1-ethyl carboxylate] | 10 to 100 µM | 0.1 to 1 µM
CCOC(=O)c1c[nH]c2c(=O)[nH]c3ccc(-c4csc(N)n4)cc3c12 [Compound 270, 8-(2-Amino-thiazol-4-yl)-4-oxo-4,5-dihydro-3H-pyrrolo[2,3-c]quinoline-1-ethyl carboxylate] | 10 to 100 µM | 0.1 to 1 µM
CCOC(=O)c1c[nH]c2c(=O)[nH]c3ccc(S(=O)(=O)NCC4CCNCC4)cc3c12 [Compound 121, 4-Oxo-8-[(piperidin-4-ylmethyl)-sulfamoyl]-4,5-dihydro-3H-pyrrolo[2,3-c]quinoline-1-ethyl carboxylate] | 1 to 10 µM | 1 to 10 µM
CCOC(=O)c1c[nH]c2c(=O)[nH]c3ccc(-c4ccc(Cl)nc4)cc3c12 [Compound 259, 8-(6-Chloro-pyridin-3-yl)-4-oxo-4,5-dihydro-3H-pyrrolo[2,3-c]quinoline-1-ethyl carboxylate] | 1 to 10 µM | 1 to 10 µM
CCOC(=O)c1c[nH]c2c(=O)[nH]c3ccc(SC4CCCCC4)cc3c12 [Compound 221, 8-Cyclohexylsulfanyl-4-oxo-4,5-dihydro-3H-pyrrolo[2,3-c]quinoline-1-ethyl carboxylate] | 1 to 10 µM | 0.1 to 1 µM
CCOC(=O)c1c[nH]c2c(=O)[nH]c3ccc(N)cc3c12 [Compound 64, 8-Amino-4-oxo-4,5-dihydro-3H-pyrrolo[2,3-c]quinoline-1-ethyl carboxylate] | 10 to 100 µM | 1 to 10 µM
CCOC(=O)c1c[nH]c2c(=O)[nH]c3ccc(S(=O)(=O)N(C)c4cccc(Cl)c4)cc3c12 [Compound 34, 8-[(3-Chlorophenyl)-methyl-sulfamoyl)-4-oxo-4,5-dihydro-3H-pyrrolo[2,3-c]quinoline-1-ethyl carboxylate] | 1 to 10 µM | 0.1 to 1 µM
CCOC(=O)c1c[nH]c2c(=O)[nH]c3ccc(NC)cc3c12 [Compound 63, 8-Methylamino-4-oxo-4,5-dihydro-3H-pyrrolo[2,3-c]quinoline-1-ethyl carboxylate hydrochloride] | 10 to 100 µM | 1 to 10 µM
CCOC(=O)c1c[nH]c2c(=O)[nH]c3ccc(-c4ccccc4N)cc3c12 [Compound 231, 8-(2-Aminophenyl)-4-oxo-4,5-dihydro-3H-pyrrolo[2,3-c]quinoline-1-ethyl carboxylate] |  | 0.1 to 1 µM
CCCOC(=O)c1c[nH]c2c(=O)[nH]c3cc(F)c(S(=O)(=O)N(CCO)C(C)C)cc3c12 [Compound 185, 7-Fluoro-8-[(2-hydroxy-ethyl)-isopropyl-sulfamoyl]-4-oxo-4,5-dihydro-3H-pyrrolo[2,3-c]quinoline-1-propyl carboxylate] |  | < 0.1 µM
CCCOC(=O)c1c[nH]c2c(=O)[nH]c3ccc(S(=O)(=O)N4CC[C@H](N(C)C)C4)cc3c12 [Compound 171] |  | 0.1 to 1 µM
CCCOC(=O)c1c[nH]c2c(=O)[nH]c3ccc(S(=O)(=O)N(C[C@H]4CCCN4)C4CC4)cc3c12 [Compound 148, (R)-8-(Cyclopropyl-pyrrolidin-2-ylmethyl-sulfamoyl)-4-oxo-4,5-dihydro-3H-pyrrolo[2,3-c]quinoline-1-propyl carboxylate hydrochloride] |  | 0.1 to 1 µM
CCCOC(=O)c1c[nH]c2c(=O)[nH]c3ccc(S(=O)(=O)N(C)C4CC4)cc3c12 [Compound 125, 8-(Cyclopropyl-methyl-sulfamoyl)-4-oxo-4,5-dihydro-3H-pyrrolo[2,3-c]quinoline-1-propyl carboxylate] |  | < 0.1 µM
CCOC(=O)c1c[nH]c2c(=O)[nH]c3ccc(NS(=O)(=O)Cc4ccccc4)cc3c12 [Compound 39, 4-Oxo-8-phenylmethanesulfonylamino-4,5-dihydro-3H-pyrrolo[2,3-c]quinoline-1-ethyl carboxylate] |  | 0.1 to 1 µM
CCOC(=O)c1c[nH]c2c(=O)[nH]c3ccc([S+]([O-])Cc4ccccc4)cc3c12 (stereo not drawn) [Compound 198, 4-Oxo-8-phenylmethanesulfinyl-4,5-dihydro-3H-pyrrolo[2,3-c]quinoline-1-ethyl carboxylate] |  | 0.1 to 1 µM
CCCOC(=O)c1c[nH]c2c(=O)[nH]c3ccc(S(=O)(=O)N4CCC(N(C)C(=O)OC(C)(C)C)C4)cc3c12 (stereo not drawn) [Compound 169, 8-[3-(tert-Butoxycarbonyl-methyl-amino)-pyrrolidine-1-sulfonyl]-4-oxo-4,5-dihydro-3H-pyrrolo[2,3-c]quinoline-1-propyl carboxylate] |  | 1 to 10 µM

Next, values leading:

IC50 (PIM-1) | IC50 (RET) | Structure (SMILES)
10 to 100 µM | 1 to 10 µM | COC(=O)c1c[nH]c2c(=O)[nH]c3ccc(S(=O)(=O)N4CCN(C)CC4)cc3c12 [Compound 95, 8-(4-Methyl-piperazine-1-sulfonyl)-4-oxo-4,5-dihydro-3H-pyrrolo[2,3-c]quinoline-1-methyl carboxylate]
0.1 to 1 µM | 0.1 to 1 µM | CCOC(=O)c1c[nH]c2c(=O)[nH]c3ccc(I)cc3c12 [Compound 209, 8-Iodo-4-oxo-4,5-dihydro-3H-pyrrolo[2,3-c]quinoline-1-ethyl carboxylate]
1 to 10 µM | 0.1 to 1 µM | CCOC(=O)c1c[nH]c2c(=O)[nH]c3ccc(Br)cc3c12 [Compound 71, 8-Bromo-4-oxo-4,5-dihydro-3H-pyrrolo[2,3-c]quinoline-1-ethyl carboxylate]
10 to 100 µM | 10 to 100 µM | CN(C)CCNC(=O)c1c[nH]c2c(=O)[nH]c3ccccc3c12 [Compound 79, N-(2-Dimethylamino-ethyl)-4-oxo-4,5-dihydro-3H-pyrrolo[2,3-c]quinoline-1-carboxamide]
1 to 10 µM | 1 to 10 µM | CCOC(=O)c1c[nH]c2c(=O)[nH]c3ccc([N+](=O)[O-])cc3c12 [Compound 66, 8-Nitro-4-oxo-4,5-dihydro-3H-pyrrolo[2,3-c]quinoline-1-ethyl carboxy late]
 | 0.1 to 1 µM | CCOC(=O)c1c[nH]c2c(=O)[nH]c3ccc(NS(=O)(=O)c4ccc(Cl)s4)cc3c12 [Compound 57, 8-(5-Chloro-thiophene-2-sulfonylamino)-4-oxo-4,5-dihydro-3H-pyrrolo[2,3-c]quinoline-1-ethyl carboxylate]
 | 0.1 to 1 µM | CCCOC(=O)c1c[nH]c2c(=O)[nH]c3ccc(S(=O)(=O)N(C)CCN4CCCC4)cc3c12 [Compound 137, 8-[Methyl-(2-pyrrolidin-1-yl-ethyl)-sulfamoyl]-4-oxo-4,5-dihydro-3H-pyrrolo[2,3-c]quinoline-1-propyl carboxylate]
 | 0.1 to 1 µM | CCOC(=O)c1c[nH]c2c(=O)[nH]c3ccc(NS(C)(=O)=O)cc3c12 [Compound 38, 8-Methanesulfonylamino-4-oxo-4,5-dihydro-3H-pyrrolo[2,3-c]quinoline-1-ethyl carboxylate]
 | 1 to 10 µM | CN(c1ccc(F)cc1)S(=O)(=O)c1ccc2[nH]c(=O)c3[nH]cc(C(=O)OCCO)c3c2c1 [Compound 104, 8-[(4-Fluorophenyl)-methyl-sulfamoyl]-4-oxo-4,5-dihydro-3H-pyrrolo[2,3-c]quinoline-1-2-hydroxyethyl carboxylate]
 | 1 to 10 µM | CCOC(=O)c1c[nH]c2c(=O)[nH]c3ccc(C(=O)c4ccccc4)cc3c12 [Compound 102, 8-Benzoyl-4-oxo-4,5-dihydro-3H-pyrrolo[2,3-c]quinoline-1-ethyl carboxylate]
